Source: PubChem BioAssay (NCI)
Several values for one entry are separate records, joined by “and”; a condition that tells them apart may be missing. Equal entries are not always repeated.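 Results reflect a 48-hour exposure of cells in 96-well plates to compound at five concentrations. GI50 marks 50% less growth. The concentration for full growth arrest is given as TGI.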

Tests used:
Assay in all cases: DTP human tumour cell line panel, 48 h
OVCAR-8 ovarian = system: OVCAR-8 ovarian
COLO 205 colon = system: COLO 205 colon
MALME-3M melanoma = system: MALME-3M melanoma
HT29 colon = system: HT29 colon
SK-MEL-28 melanoma = system: SK-MEL-28 melanoma
HCT-116 colon = system: HCT-116 colon
MOLT-4 leukemia = system: MOLT-4 leukemia
DU-145 prostate = system: DU-145 prostate
HL-60(TB) leukemia = system: HL-60(TB) leukemia
ACHN renal = system: ACHN renal

| Compound | GI50 (OVCAR-8 ovarian) [µM] | TGI (OVCAR-8 ovarian) | GI50 (COLO 205 colon) [µM] | TGI (COLO 205 colon) | GI50 (MALME-3M melanoma) [µM] | TGI (MALME-3M melanoma) [µM] | GI50 (HT29 colon) | TGI (HT29 colon) | GI50 (SK-MEL-28 melanoma) | TGI (SK-MEL-28 melanoma) | GI50 (HCT-116 colon) | TGI (HCT-116 colon) | GI50 (MOLT-4 leukemia) [µM] | TGI (MOLT-4 leukemia) | GI50 (DU-145 prostate) [µM] | TGI (DU-145 prostate) [µM] | GI50 (HL-60(TB) leukemia) | TGI (HL-60(TB) leukemia) | GI50 (ACHN renal) | TGI (ACHN renal) |
| --- | --- | --- | --- | --- | --- | --- | --- | --- | --- | --- | --- | --- | --- | --- | --- | --- | --- | --- | --- | --- |
| CNCCCNc1ccnc2cc(Cl)ccc12 | 28.3 | > 100 µM | 12.6 | 27.4 µM | 19.7 | 40.5 | 13.4 µM | 55.5 µM | 15.5 µM | 34.6 µM | 11.2 µM | 41.4 µM | 20.6 | 69.9 µM | 17.3 | 38.5 | 22.1 µM | 65 µM | 19 µM | 61.3 µM |
| CCN(CCNS(C)(=O)=O)c1ccc(N)c(C)c1 | 3.94 | 15.2 µM | 13.4 | 28.9 µM | 10.2 | 24.4 | 6.16 µM | 28.7 µM | 13.4 µM | 27.4 µM | 2.5 µM | 6.2 µM | 23.1 | 59.6 µM | 10.8 | 22.8 | 7.01 µM | 25.7 µM | 2.09 µM | 4.9 µM |
| COc1ccc2c(=O)oc3c(OC)cc(CCN(C)C)c4c(=O)oc1c2c34 |  | 30.7 µM and 17.2 µM |  | 17.4 µM and 22.1 µM |  | 28.5 | 13.7 µM and 5.51 µM | 27 µM and 12.6 µM | 4.25 µM and 1.01 µM | 15.6 µM and 2.2 µM | 14.3 µM and 5.27 µM | 27.9 µM and 11.9 µM |  | 26.8 µM and 17.1 µM |  | 15.8 | 10.7 µM and 1.84 µM | 26.5 µM and 10.2 µM | 14.8 µM and 5.71 µM | 28.1 µM and 11.8 µM |
| Cc1cc(C(=O)CSC(=S)SC(C)(C)C)ccc1Cl |  | > 100 µM |  | 33.1 µM |  | 33.4 |  | 69 µM |  | 35.6 µM |  | 42.3 µM |  | 62.9 µM |  | > 100 |  | 44.1 µM |  | 62.9 µM |
| CCN(Cc1c(F)cccc1OC)c1ccc(CO)c(Cl)c1 | 12 | 50.2 µM | 0.684 | 7.43 µM | 14 | 31.7 | 1.47 µM | 18.9 µM | 14.7 µM | 34.3 µM | 0.0546 µM | > 37.2 µM | 17.4 | 52.3 µM | 17.8 | > 57.3 | 13.2 µM | 43.3 µM | 16.8 µM | 44.6 µM |
| COC(=O)/C=C/c1cc(OC(C)=O)c2c(c1)C(C(=O)OC)C(c1ccc(OC(C)=O)c(OC(C)=O)c1)O2 (stereo not given) | 0.224 | > 72.9 µM | 3.43 | > 50.6 µM | 1.08 | 56.6 | 2.65 µM | > 77.5 µM | 0.905 µM | 59.7 µM | 0.0499 µM | > 51.4 µM | 0.0582 | > 47.4 µM | 0.131 | > 100 | 0.0273 µM | 0.114 µM | 0.0779 µM | 35.5 µM |
| COc1cc2c(cc1OCCCN1CCN(CCCOc3cc4c(cc3OC)C(=O)N3CC(F)(F)C[C@H]3C=N4)CC1)N=C[C@@H]1CC(F)(F)CN1C2=O | 6.3 | 26.7 µM | 3.09 | 10.2 µM | 2.8 | 6.34 | 3.61 µM | > 100 µM | 4.28 µM | 15.2 µM | 3.59 µM | 22.4 µM | 2.02 | 8.37 µM | 3.63 | 13.3 | 1.18 µM | 5.06 µM | 5.64 µM | 19.7 µM |
| COc1ccc(Cl)cc1NC(=O)c1ccc(NC2=C(Cl)C(=O)N(Cc3ccccc3)C2=O)cc1 | 19.4 | > 100 µM | > 100 | > 100 µM | > 100 | > 100 | 4.8 µM | > 100 µM | > 100 µM | > 100 µM | 37.7 µM | > 100 µM | 1.43 | 13.4 µM | > 100 | > 100 | 9.51 µM | 55.3 µM | 94.2 µM | > 100 µM |
| COc1ccc(-c2cc(=O)oc3c4c(ccc23)OCN(Cc2ccc(F)cc2)C4)cc1 | 17.2 | 37.7 µM | 18.7 | 36.1 µM | 15.4 | 32.7 | 17.6 µM | 34.9 µM | 15.1 µM | 30.7 µM | 13.6 µM | 27.7 µM | 19.4 | 58.3 µM | 24.3 | 59.9 | 23.2 µM | 57.4 µM | 19.4 µM | 65 µM |
